The record followed here is PubChem BioAssay AID330 (DTP/NCI, 2004).

“And” between values parts separate entries of the source, which are not always exact repeats. Equal values may be shown once. Toxic doses and inconclusive results are not listed.

The test relates to P388 leukemia ip, CD2F1 mice, survival T/C. Put plainly: NCI In Vivo Anticancer Drug Screen. Data for tumor model P388 Leukemia (intraperitoneal) in CD2F1 (CDF1) mice. Particulars: endpoint: median survival time, higher = longer survival. Put shortly: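 Mice carrying the transplanted tumor received test compound or vehicle. Survival was recorded in each group, and the value is the treated-group measurement divided by that of the vehicle-treated control group.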

Where [1] appears, read: dose: 100.0 mg/kg/injection, schedule: Q01DX009 (ip), vehicle: saline with Tween-80.
Setting [2] is: dose: 200.0 mg/kg/injection, schedule: Q01DX009 (ip), vehicle: saline with Tween-80.
The mark [3] stands for this setting: dose: 60.0 mg/kg/injection, schedule: Q01DX005 (ip), vehicle: saline with Tween-80.
[4] abbreviates: dose: 120.0 mg/kg/injection, schedule: Q01DX005 (ip), vehicle: saline with Tween-80.
[5] abbreviates: dose: 240.0 mg/kg/injection, schedule: Q01DX005 (ip), vehicle: saline with Tween-80.

As to `COc1cc2cc3c4cc(OC)c(OC)cc4cc[n+]3c(CCC(=O)O)c2cc1OC`, the T/C reads like this: under setting [1], 96 % of control; under setting [2], 96 % of control; (dose: 400.0 mg/kg/injection, schedule: Q01DX009 (ip), vehicle: saline with Tween-80) 94 % of control.

For the compound `C=C(C)c1c2ccccc2cc2cccc(Sc3ccccc3)c12`, the T/C is 90 % of control (dose: 100.0 mg/kg/injection, schedule: Q04DX003 (ip), vehicle: saline with Tween-80); 90 % of control (dose: 200.0 mg/kg/injection, schedule: Q04DX003 (ip), vehicle: saline with Tween-80); 90 % of control (dose: 400.0 mg/kg/injection, schedule: Q04DX003 (ip), vehicle: saline with Tween-80).

`COc1ccc(-c2c(C)c(C)nc(Cl)c2C#N)c(OCc2ccccc2)c1OC`: the T/C runs as follows: (dose: 0.05 mg/kg/injection, schedule: Q01DX009 (ip), vehicle: water) 100 % of control; (dose: 0.1 mg/kg/injection, schedule: Q01DX009 (ip), vehicle: water) 104 % of control; (dose: 0.2 mg/kg/injection, schedule: Q01DX009 (ip), vehicle: water) 104 % of control; (dose: 0.4 mg/kg/injection, schedule: Q01DX009 (ip), vehicle: other) 96 % of control; (dose: 0.4 mg/kg/injection, schedule: Q01DX009 (ip), vehicle: water) 99 % of control; (dose: 0.8 mg/kg/injection, schedule: Q01DX009 (ip), vehicle: other) 97 % of control. The T/C runs as follows: (dose: 1.6 mg/kg/injection, schedule: Q01DX009 (ip), vehicle: other) 94 % of control; (dose: 3.2 mg/kg/injection, schedule: Q01DX009 (ip), vehicle: other) 100 % of control; (dose: 6.25 mg/kg/injection, schedule: Q01DX009 (ip), vehicle: other) 110 % of control; (dose: 6.4 mg/kg/injection, schedule: Q01DX009 (ip), vehicle: other) 102 % of control; (dose: 12.5 mg/kg/injection, schedule: Q01DX009 (ip), vehicle: other) 108 % of control; (dose: 25.0 mg/kg/injection, schedule: Q01DX009 (ip), vehicle: other) 104 % of control. In addition, the T/C (dose: 50.0 mg/kg/injection, schedule: Q01DX009 (ip), vehicle: other) was 103 % of control; the T/C (dose: 100.0 mg/kg/injection, schedule: Q01DX009 (ip), vehicle: other) was 111 % of control; the T/C (dose: 200.0 mg/kg/injection, schedule: Q01DX009 (ip), vehicle: other) is 102 % of control; the T/C (dose: 400.0 mg/kg/injection, schedule: Q01DX009 (ip), vehicle: other) was 105 % of control.

`CCCCCCCCCCCC1(O)OC(=O)C(C)=C1C` (configuration not stated): the T/C (dose: 12.5 mg/kg/injection, schedule: Q04DX003 (ip), vehicle: saline with Tween-80) was 101 % of control; the T/C (dose: 25.0 mg/kg/injection, schedule: Q04DX003 (ip), vehicle: saline with Tween-80) is 108 % of control; the T/C (dose: 50.0 mg/kg/injection, schedule: Q04DX003 (ip), vehicle: saline with Tween-80) was 103 % of control.

Consider `O=[N+]([O-])C1(Br)COC(c2cccc(O)c2)OC1` (configuration not stated), for which the T/C (dose: 3.12 mg/kg/injection, schedule: Q01DX009 (ip), vehicle: saline with Tween-80) was 99 % of control; the T/C (dose: 6.25 mg/kg/injection, schedule: Q01DX009 (ip), vehicle: saline with Tween-80) was 97 % of control; the T/C (dose: 12.5 mg/kg/injection, schedule: Q01DX009 (ip), vehicle: saline with Tween-80) is 111 % of control and 94 % of control.

Turning to `CC(=O)Nc1ccc(C(=O)CCl)c(Cl)c1`, the T/C (dose: 12.5 mg/kg/injection, schedule: Q01DX009 (ip), vehicle: Klucel (hydroxypropylcellulose) (HPC)) was 104 % of control and the T/C (dose: 25.0 mg/kg/injection, schedule: Q01DX009 (ip), vehicle: Klucel (hydroxypropylcellulose) (HPC)) was 107 % of control.

Consider `CCOP(=O)(OCC)/C(C#N)=C\c1ccc(N(C)C)cc1`, for which the T/C (dose: 100.0 mg/kg/injection, schedule: Q01DX001 (ip), vehicle: saline with Tween-80) is 100 % of control; the T/C (dose: 200.0 mg/kg/injection, schedule: Q01DX001 (ip), vehicle: saline with Tween-80) was 104 % of control; the T/C (dose: 400.0 mg/kg/injection, schedule: Q01DX001 (ip), vehicle: saline with Tween-80) was 100 % of control.

Turning to `NNC(=O)c1cc2ccccc2cc1O`, the T/C was 99 % of control (dose: 50.0 mg/kg/injection, schedule: Q01DX009 (ip), vehicle: saline with Tween-80); 100 % of control under setting [1]; 95 % of control under setting [2].

As for `COCn1cc(C(N)=O)c(=O)c2c(N)nc(SC)nc21`, the T/C (dose: 25.0 mg/kg/injection, schedule: Q04DX002 (ip), vehicle: saline with Tween-80) was 96 % of control.

With `CCOc1ccc(/C=N/NC(=O)CC2CCCCC2)cc1OC`, the T/C is 90 % of control under setting [3], 87 % of control under setting [4] and 95 % of control under setting [5].

For the compound `Cc1ccc(N2N=NC3C4CCC(C)(C4(C)C)C32O)cc1` (configuration not stated), the T/C by setting is: (dose: 50.0 mg/kg/injection, schedule: Q04DX002 (ip), vehicle: other) 92 % of control; (dose: 100.0 mg/kg/injection, schedule: Q04DX002 (ip), vehicle: other) 98 % of control; (dose: 200.0 mg/kg/injection, schedule: Q04DX002 (ip), vehicle: other) 93 % of control.

In the case of `CN(C)c1nc2c(N)ncnc2n1C1OC(CO)C(O)C1O` (configuration not stated), the T/C (dose: 12.5 mg/kg/injection, schedule: Q01DX005 (ip), vehicle: saline with Tween-80) is 100 % of control and 106 % of control; the T/C (dose: 25.0 mg/kg/injection, schedule: Q01DX005 (ip), vehicle: saline with Tween-80) was 103 % of control and 106 % of control; the T/C (dose: 50.0 mg/kg/injection, schedule: Q01DX005 (ip), vehicle: saline with Tween-80) was 112 % of control and 113 % of control; the T/C (dose: 100.0 mg/kg/injection, schedule: Q01DX005 (ip), vehicle: saline with Tween-80) was 123 % of control.

`COC1OCC(NC(=O)CNC(=O)CCCCCCCCCCCCC(C)C)C(O)C1O` (configuration not stated): the T/C is 100 % of control (dose: 6.25 mg/kg/injection, schedule: Q01DX009 (ip), vehicle: distilled water + Tween-80); 93 % of control (dose: 12.5 mg/kg/injection, schedule: Q01DX009 (ip), vehicle: distilled water + Tween-80); 99 % of control (dose: 25.0 mg/kg/injection, schedule: Q01DX009 (ip), vehicle: distilled water + Tween-80); 104 % of control (dose: 50.0 mg/kg/injection, schedule: Q01DX009 (ip), vehicle: distilled water + Tween-80); 104 % of control (dose: 100.0 mg/kg/injection, schedule: Q01DX009 (ip), vehicle: distilled water + Tween-80); 108 % of control (dose: 200.0 mg/kg/injection, schedule: Q01DX009 (ip), vehicle: distilled water + Tween-80).

Take `CC(C)=NNc1cc(N)nc2c1ncn2C1OC(CO)C(O)C1O` (configuration not stated): the T/C is 97 % of control (dose: 12.5 mg/kg/injection, schedule: Q01DX005 (ip), vehicle: water); 94 % of control (dose: 25.0 mg/kg/injection, schedule: Q01DX005 (ip), vehicle: water); 98 % of control (dose: 50.0 mg/kg/injection, schedule: Q01DX005 (ip), vehicle: water); 96 % of control (dose: 100.0 mg/kg/injection, schedule: Q01DX005 (ip), vehicle: water); 106 % of control (dose: 200.0 mg/kg/injection, schedule: Q01DX005 (ip), vehicle: water).

In the case of `O=c1c2ccccc2c2nccn2c2ccccc12`, the T/C is 90 % of control under setting [3], 90 % of control under setting [4] and 96 % of control under setting [5].

For `CCOC(=O)C(N)CSCSC` (configuration not stated), the T/C (dose: 50.0 mg/kg/injection, schedule: Q01DX009 (ip), vehicle: water) is 88 % of control; the T/C (dose: 100.0 mg/kg/injection, schedule: Q01DX009 (ip), vehicle: water) was 97 % of control; the T/C (dose: 200.0 mg/kg/injection, schedule: Q01DX009 (ip), vehicle: water) was 86 % of control; the T/C (dose: 400.0 mg/kg/injection, schedule: Q01DX009 (ip), vehicle: water) was 94 % of control.

Take `O=P(N1CCCCC1)(N1CC1)N1CC1`: the T/C reads like this: (dose: 5.0 mg/kg/injection, schedule: Q04DX003 (ip), vehicle: saline) 108 % of control; (dose: 5.56 mg/kg/injection, schedule: Q01DX009 (ip), vehicle: saline) 195 % of control; (dose: 6.25 mg/kg/injection, schedule: Q01DX009 (ip), vehicle: saline) 163 % of control; (dose: 10.0 mg/kg/injection, schedule: Q04DX003 (ip), vehicle: saline) 120 % of control; (dose: 12.5 mg/kg/injection, schedule: Q01DX009 (ip), vehicle: saline) 227 % of control and 86 % of control; (dose: 20.0 mg/kg/injection, schedule: Q04DX003 (ip), vehicle: saline) 220 % of control. Besides, for the setting “dose: 25.0 mg/kg/injection, schedule: Q01DX009 (ip), vehicle: saline”, the T/C was 90 % of control.
